Like-named read-outs stand apart in the source and are kept apart here.
Legend:
[1] = Pharmacokinetics in plasma and lung in mouse; assay type: in vivo; conditions: oral aspiration, ratio of lung exposure to plasma exposure
[2] = tested on: alternaria-induced BALF eosinophils; assay: Murine model of Alternaria alternata-induced eosinophilic inflammation of the lung; assay type: in vivo; conditions: mouse, oropharyngeal aspiration, 48 h after alternaria challenge, maximum statistically significant percent inhibition
Procedure: Airway eosinophilia is a hallmark of human asthma. Alternaria alternata is a fungal aeroallergen that can exacerbate asthma in humans and induces eosinophilic inflammation in the lungs of mice (Havaux et al. Clin Exp Immunol. 2005 February; 139(2):179-88).
Seven- to nine-week old male C57 mice from Taconic were used in the study. On the day of study, animals were lightly anesthetized with isoflurane and administered either vehicle or test compound (0.03-1.0 mg/mL, 50 μL total volume over several breaths) via oropharyngeal aspiration. Animals were placed in lateral recumbency post dose and monitored for full recovery from anesthesia before being returned to their home cage. One hour later, animals were once again briefly anesthetized and challenged with either vehicle or alternaria extract (200 ug total extract delivered, 50 μL total volume) via oropharyngeal aspiration before being monitored for recovery from anesthesia and returned to their home cage. Forty-eight hours after alternaria administration, bronchoalveolar lavage fluid (BALF) was collected and eosinophils were counted in the BALF using the Advia 120 Hematology System (Siemens).
Activity in the model is evidenced by a decrease in the level of eosinophils present in the BALF of treated animals at forty-eight hours compared to the vehicle treated, alternaria challenged control animals. Data are expressed as percent inhibition of the vehicle treated, alternaria challenged BALF eosinophils response. To calculate percent inhibition, the number of BALF eosinophils for each condition is converted to percent of the average vehicle treated, alternaria challenged BALF eosinophils and subtracted from one-hundred percent.

human eosinophils = assay: IL-5 mediated eosinophil survival assay; assay type: cell-based; conditions: for IC50: Homo sapiens, Eosinophil, read-out: pIC50 IL-5 mediated eosinophil survival (converted)
Procedure: The potency of the test compound for IL-5 mediated eosinophil survival was measured in human eosinophils isolated from human whole blood (AllCells). Because IL-5 signals through JAK, this assay provides a measure of JAK cellular potency.
Human eosinophils were isolated from fresh human whole blood (AllCells) of healthy donors. Blood was mixed with 4.5% Dextran (Sigma-Aldrich) in a 0.9% sodium chloride solution (Sigma-Aldrich). Red blood cells were left to sediment for 35 minutes. The leukocyte rich upper layer was removed and layered over Ficoll-Paque (GE Healthcare) and centrifuged at 600 g for 30 minutes. The plasma and mononuclear cell layers were removed before the granulocyte layer was lysed with water to remove any contaminating red blood cells. Eosinophils were further purified using a human eosinophil isolation kit (Miltenyi Biotec). A fraction of the purified eosinophils were incubated with anti-CD16 FITC (Miltenyi Biotec) for 10 minutes at 4° C. in the dark. Purity was analyzed using a LSRII flow cytometer (BD Biosciences).
Cells were cultured in a 37° C., 5% CO2 humidified incubator in RPMI 1640 (Life Technologies) supplemented with 10% Heat Inactivated Fetal Bovine Serum (FBS, Life Technologies), 2 mM Glutamax (Life Technologies), 25 mM HEPES (Life Technologies) and 1× Pen/Strep (Life Technologies). Cells were seeded at 10,000 cells/well in media (50 μL). The plate was centrifuged at 300 g for 5 minutes and supernatants removed. Compounds were serially diluted in DMSO and then diluted another 500-fold to a 2× final assay concentration in media. […]
After cytokine stimulation, cells were centrifuged at 300 g for 5 min and washed twice with cold DPBS (Life Technologies). To access viability and apoptosis, cells were incubated with Propidium Iodide (Thermo Fisher Scientific) and APC Annexin V (BD Biosciences) and analyzed using a LSRII flow cytometer (BD Biosciences). IC50 values were determined from analysis of the viability curves of percent cell viability vs compound concentration. Data are expressed as pIC50 (negative decadic logarithm IC50) values.

Row | Structure (SMILES) | Lung to Plasma ratio Assay 3 [1] | Percent Inhibition of Alternaria-induced BALF Eosinophils [2] | inhibition of IL-5 mediated human eosinophil survival (in words) (human eosinophils) | IC50 (human eosinophils; in the presence of 10 pg/ml IL-5) | IC50 (human eosinophils; in the presence of 1 ng/ml IL-5)
1 | CCCN1Cc2[nH]c(-c3n[nH]c4cc(-c5cc(F)c(O)cc5CC)ccc34)nc2C[C@H]1C(=O)N1C[C@@H]2C[C@H]1CN2C [Example 1, ((S)-2-(6-(2-ethyl-5-fluoro-4-hydroxyphenyl)-1H-indazol-3-yl)-5-propyl-4,5,6,7-tetrahydro-3H-imidazo[4,5-c]pyridin-6-yl)((1S,4S)-5-methyl-2,5-diazabicyclo-[2.2.1]heptan-2-yl)methanone] | A (A denotes a ratio 100-200) | 90 | potently inhibit | 0.0501 µM | 2 µM
2 | CCc1cc(O)c(F)cc1-c1ccc2c(-c3nc4c([nH]3)CN(C(C)C)[C@H](C(=O)N3CC[C@H](N(C)C)C3)C4)n[nH]c2c1 [Example 3] | B (B denotes a ratio between 50 and 100) | 93 |  |  | 
